The source of these data is PubChem BioAssay AID1549 (Sanford-Burnham Center for Chemical Genomics, 2009).

Active and inactive are the calls of the source. How the calls were made is not given here.

As a reminder, the Kd is the concentration at which binding is half-saturated.

The experiment deals with Influenza A virus M2 proton channel (A/TW/4845/1999 H1N1). Put plainly: NMR binding screen, influenza A virus M2 proton channel, Kd (AID 1549). Conditions: M2 protein.
For `COc1ccc(C2(CN)CCOCC2)cc1OC`, the Kd is > 4 mM (inactive).
In the case of `O=C(NCc1ccccn1)c1ccc(Cl)cc1Cl` it was > 4 mM (inactive); in that of `O=C1NC(=S)NC(=O)C1=Cc1ccncc1`, > 4 mM (inactive); in that of `O=C(O)c1scc2c1CCCC2`, > 4 mM (inactive).
With `O=S(=O)(NCc1ccco1)N1CCOCC1` the figure was > 4 mM (inactive).
In the case of `O=C(O)CSCc1c(F)cccc1Cl` it was > 4 mM (inactive).
Consider `COCCn1c(C)cc(O)cc1=O`, for which the Kd is > 4 mM (inactive).
In the case of `NC(=O)c1cccnc1Oc1ccccc1` it was > 4 mM (inactive).
In the case of `Cc1cc(C(=O)Nc2ccc3c(c2)OCCO3)c(C)o1` it was > 4 mM (inactive).
In the case of `OCc1ncoc1-c1ccccc1` it was > 4 mM (inactive); in that of `COC(=O)c1cccs1`, > 4 mM (inactive); in that of `CC(=O)Nc1ccccc1OCC(N)=O`, > 4 mM (inactive).
As for `S=c1[nH]nc(-c2cccnc2)n1C1CCCCC1`, the Kd was > 4 mM (inactive).
In the case of `O=C(Nc1cccnc1)c1cccs1` it was > 4 mM (inactive); in that of `O=C(Nc1nnc(-c2ccccc2Cl)o1)c1ccco1`, > 4 mM (inactive).
In the case of `CC(NC(=O)c1cccnc1)c1ccc2c(c1)OCO2` (stereo unspecified) it was > 4 mM (inactive); in that of `Cc1nc(-c2cc(C(=O)O)no2)cs1`, > 4 mM (inactive).
As to `Cc1ccccc1N1C(=O)CC(=O)NC1=O`, the Kd was > 4 mM (inactive).
For the compound `Cc1nnc(SCC(=O)Nc2ccccc2)[nH]c1=O`, the Kd is > 4 mM (inactive).
As to `OCC1COc2ccccc2C1` (stereo unspecified), the Kd was > 4 mM (inactive).
As to `O=C(O)CCCC(=O)Nc1nccs1`, the Kd is > 4 mM (inactive).
Consider `CCOC(=O)C(C)c1n[nH]c(=O)c2ccccc12` (stereo unspecified), for which the Kd is > 4 mM (inactive).
In the case of `NC(=O)Cn1nc(-c2ccc(F)cc2)ccc1=O` it was > 4 mM (inactive); in that of `CCc1noc(C)c1C(=O)N1CCCC1`, > 4 mM (inactive).
With `C=C1CCC(=O)C(C)CCC2C1CC2(C)C` (stereo unspecified) the figure was > 4 mM (inactive).
In the case of `COC(=O)c1nc(-c2ccccc2)oc1N(C)C` it was > 4 mM (inactive); in that of `CC(=O)c1cc(-c2nc3ccccc3n2C)n(C)c1`, > 4 mM (inactive).
With `COc1cc2c(cc1OC)-c1nnnn1C(C)(C)C2`, the Kd was > 4 mM (inactive).
In the case of `COc1cc(OC)c(-c2nc3cnccc3n2C)cc1OC` it was > 4 mM (inactive).
In the case of `O=c1cnnc(N2CCCCC2)[nH]1` it was > 4 mM (inactive); in that of `CN=C(C)c1c(O)n(C)c(=O)n(C)c1=O`, > 4 mM (inactive).
In the case of `Cc1c(N=CN2CCOCC2)c(=O)n(C)c(=O)n1C` it was > 4 mM (inactive); in that of `O=C(O)C1=CCCNC1`, > 4 mM (inactive); in that of `CNC(=O)c1ccccc1-c1ccccc1`, > 4 mM (inactive).
Take `CC1(C)CC[C@]2(C(=O)O)CC[C@]3(C)C(=CCC4[C@@]5(C)CC[C@H](O)[C@@](C)(CO)C5CC[C@]43C)C2C1` (stereo partly specified): the Kd was > 4 mM (inactive).
Take `CC(C)(O)CC[C@@H](O)[C@](C)(O)C1CC[C@@]2(O)C3=CC(=O)C4C[C@@H](O)[C@@H](O)C[C@]4(C)C3CC[C@]12C` (stereo partly specified): the Kd is > 4 mM (inactive).
With `COc1ccc2c(c1)OC/C(=C/c1ccc(O)c(O)c1)C2=O` the figure was > 4 mM (inactive); with `NC(=O)CC(=O)NC12CC3CC(CC(C3)C1)C2`, > 4 mM (inactive); with `Cc1ccc(/C=C2/NC(=S)NC2=O)s1`, > 4 mM (inactive).
With `OCc1ccc(OC(F)(F)F)cc1` the figure was > 4 mM (inactive); with `Cc1cc(C(=O)NCc2ccccc2Br)no1`, > 4 mM (inactive).
With `O=C1C2=C(SCCS2)C(=O)N1CCCO` the figure was > 4 mM (inactive).
`Cn1c(O)c(/C=C2\C=CC=N2)c(=O)[nH]c1=O`: the Kd was > 4 mM (inactive).
In the case of `CCOc1ccc(-c2c(=O)n(O)c3ccccc3[n+]2[O-])cc1` it was > 4 mM (inactive); in that of `Cc1nn2c(-c3ccco3)nnc2c2ccccc12`, > 4 mM (inactive).
With `C=CCc1cc(C(=O)N2CCCCC2)ccc1O` the figure was > 4 mM (inactive); with `Cc1nc2[nH]onc2c2nccc(=O)c12`, > 4 mM (inactive); with `O=C(c1ccncc1)c1ccc(Br)cc1`, > 4 mM (inactive).
In the case of `COC(=O)c1ccc(N2CCCC2)nc1` it was > 4 mM (inactive).
Consider `O=C1Nc2ccc(S(=O)(=O)NCCO)c3cccc1c23`, for which the Kd was > 4 mM (inactive).
With `O=CN1CCN(C(=O)c2ccccc2Cl)CC1` the figure was > 4 mM (inactive); with `O=C1CSC(=S)N1Cc1cccnc1`, > 4 mM (inactive).
In the case of `Cc1ccc2cc(CO)ccc2n1` it was > 4 mM (inactive).
With `Clc1ccccc1-c1nc(-c2cccnc2)no1` the figure was > 4 mM (inactive).
For `CC1(C)CCC(C)(C)c2cc(C(=O)O)ccc21`, the Kd was > 4 mM (inactive).
With `COC1=CC(=O)C=C(OC)C1=O` the figure was > 4 mM (inactive); with `S=c1[nH]nc(-c2cccnc2)n1Cc1ccccc1`, > 4 mM (inactive).
In the case of `O=S1(=O)NC(=NCc2ccccc2)c2ccccc21` it was > 4 mM (inactive); in that of `Cc1c(C(=O)OC(C)C)[nH]c2c1C(=O)CCC2`, > 4 mM (inactive).
In the case of `COc1c2ccoc2cc2oc(=O)ccc12` it was > 4 mM (inactive).
`Cc1cc(C)n2nc(-c3cccnc3)nc2n1`: the Kd is > 4 mM (inactive).
With `CC1CCCN(C/C(O)=C(\C#N)c2nc3ccccc3[nH]2)C1` (stereo unspecified) the figure was > 4 mM (inactive); with `CC1=C(/C=C/C(C)=C/C=C/C(C)=C/C=C/C=C(C)/C=C/C=C(C)/C=C/C(=O)[C@]2(C)C[C@@H](O)CC2(C)C)C(C)(C)C[C@H](O)C1`, > 4 mM (inactive); with `Cc1ccc(SCc2cc(=O)n3[nH]c(C)nc3n2)cc1`, > 4 mM (inactive).
On to `CN1C(=O)c2ccc(N3CCCC3)cc2C1=O`, for which the Kd is > 4 mM (inactive).
In the case of `CC1CCN(C(=O)c2ccc(NS(C)(=O)=O)cc2)CC1` it was > 4 mM (inactive).
With `CC(=O)NC12CC3CC(C)(C1)CC(NC(C)=O)(C3)C2` the figure was > 4 mM (inactive); with `Nc1ncc2[nH]cnc2n1`, > 4 mM (inactive); with `O=c1nc(N2CCCCC2)nc2n1CCO2`, > 4 mM (inactive).
With `O=C(Cc1c(F)cccc1Cl)Nc1cccnc1` the figure was > 4 mM (inactive); with `CC(=O)c1cccc(NC2=NCC(C)(C)S2)c1`, > 4 mM (inactive); with `Cc1cc(C)n(S(=O)(=O)c2ccc(C)c(C)c2C)n1`, > 4 mM (inactive).
For `CC[C@H](/C=C/C(C)C1CCC2C3CCC4=CC(=O)CC[C@]4(C)C3CC[C@]12C)C(C)C` (stereo partly specified), the Kd was > 4 mM (inactive).
Take `Cc1cc(=O)n2[nH]c(COc3ccccc3)nc2n1`: the Kd is > 4 mM (inactive).
In the case of `OCc1cccc2c1OCCO2` it was > 4 mM (inactive).
With `Cc1csc(NC(=O)c2cccs2)n1` the figure was > 4 mM (inactive); with `Cc1occc1C(=O)NCc1ccccn1`, > 4 mM (inactive); with `CC1(C)C(=O)N(O)C(C)(C)C(=O)N1O`, > 4 mM (inactive).
With `COC(=O)c1ccccc1NC(=O)c1cc[n+]([O-])cc1` the figure was > 4 mM (inactive); with `Cc1cc(=O)oc2cc3c(cc12)OCCO3`, > 4 mM (inactive); with `CNS(=O)(=O)c1cccs1`, > 4 mM (inactive).
Regarding `O=C(/C=C/c1ccco1)NC1=NCCS1`, the Kd is > 4 mM (inactive).
In the case of `CN1CCC(N2CCOCC2)CC1` it was > 4 mM (inactive).
With `CC1(C)NC(=O)N(CCOc2ccc3c(c2)CCC3)C1=O`, the Kd was > 4 mM (inactive).
Regarding `CCn1ccc(C(=O)Nc2nccs2)n1`, the Kd is > 4 mM (inactive).
In the case of `O=C(O)CCn1cncn1` it was > 4 mM (inactive); in that of `CC(=O)O[C@@H]1CC2C(C)(C)C=CC(=O)[C@]2(C)C2CC[C@@]3(C)[C@H](c4ccoc4)OC(=O)C4OC43[C@@]21C` (stereo partly specified), > 4 mM (inactive).
For the compound `Cc1cc(C(=O)Nc2cccnc2)no1`, the Kd was > 4 mM (inactive).
With `O=C(NCc1ccccc1Cl)c1cnn2cccnc12` the figure was > 4 mM (inactive).
In the case of `O=C1CCCN1C(=O)c1ccc(F)cc1` it was > 4 mM (inactive); in that of `CC(=O)Nc1cccc(-c2nc3ccccc3c(=O)o2)c1`, > 4 mM (inactive).
With `CS(=O)(=O)Nc1ccc(C(=O)N2CCCCC2)cc1`, the Kd was > 4 mM (inactive).
For `CC(C)c1ccc2c(c1)CCC1[C@](C)(CN)CCC[C@]21C` (stereo partly specified), the Kd is > 4 mM (inactive).
`OCC1COc2ccccc2O1` (stereo unspecified): the Kd is > 4 mM (inactive).
In the case of `NS(=O)(=O)c1ccc(NC(=O)c2ccccc2F)cc1` it was > 4 mM (inactive); in that of `COc1ccc([C@H]2Oc3c(I)c(OC)cc(OC)c3C[C@@H]2O)cc1OC`, > 4 mM (inactive).
With `Nc1nnc(SCc2cccnc2)s1` the figure was > 4 mM (inactive); with `S=C(NC1CC1)NN1CCOCC1`, > 4 mM (inactive); with `Cc1nn(CC(=O)N2CCCCC2)c(=O)c2ccccc12`, > 4 mM (inactive).
In the case of `N#CCCn1ccnc1-c1ccccc1` it was > 4 mM (inactive); in that of `CC(=O)Nc1sc(C)c(C)c1C(N)=O`, > 4 mM (inactive).
`O=C(O)Cn1c(C(F)(F)F)nc2ccccc21`: the Kd is > 4 mM (inactive).
As to `CC(C)Oc1ccc(NC(N)=O)cc1`, the Kd was > 4 mM (inactive).
In the case of `Cn1c(O)c(C=NCC2CCNCC2)c(=O)n(C)c1=O` it was > 4 mM (inactive); in that of `Cc1ncc(C[n+]2csc3ccccc32)c(N)n1`, > 4 mM (inactive).
With `Cc1ccc(=O)[nH]c1` the figure was > 4 mM (inactive).
